Data reported in US9409966B2, “Glucagon-like peptide-1 derivatives and their pharmaceutical use” (priority 2007, dated 2016).
*1 amine or outer side, *2 acyl side, *3 side chain or, on linkers, in order; H or OH if unused. Where a SMILES comes first, the peptide text is derived from it. Side-chain parts run from the residue outwards. [ ]: non-standard residue; d: D form. The star is where a group is joined. X2 = O=C(O)CCCCCCCCCCCCCCCCC(=O)N[C@@H](CCC(=O)NCCOCCOCC(=O)NCCOCCOCC(=O)N[C@@H](CCCCN*)C(=O)O)C(=O)O; X1 = O=C(CCCCCCCCCCCCCCCc1nnn[nH]1)NS(=O)(=O)CCCC(=O)*; C20 diacid = O=C(O)CCCCCCCCCCCCCCCCCCC(=O)*; C16 diacid = O=C(O)CCCCCCCCCCCCCCC(=O)*; γGlu = O=C(O)[C@H](CCC(=O)[*:2])N[*:1]; Desaminohistidyl = O=C(CCc1c[nH]cn1)*; βAsp = O=C(O)[C@H](CC(=O)[*:2])N[*:1]; AEEA = NCCOCCOCC(=O)O; Aib = CC(C)(N)C(=O)O; Inp = O=C(O)C1CCNCC1; GABA = NCCCC(=O)O

Molecular target: human serum albumin (HSA) (Homo sapiens, UniProt P02768)
Experiment: Albumin binding affinity, competition scintillation proximity assay (SPA)
Procedure: Streptavidin-SPA beads (GE Healthcare RPNQ0009) were incubated with biotinylated HSA for 5 hours. The beads were washed with buffer to remove unbound HSA. […] After 20 hours of gentle rocking at room temperature the plates were centrifuged and counted on a TopCounter.

human serum albumin (HSA), sequence (P02768 25-609): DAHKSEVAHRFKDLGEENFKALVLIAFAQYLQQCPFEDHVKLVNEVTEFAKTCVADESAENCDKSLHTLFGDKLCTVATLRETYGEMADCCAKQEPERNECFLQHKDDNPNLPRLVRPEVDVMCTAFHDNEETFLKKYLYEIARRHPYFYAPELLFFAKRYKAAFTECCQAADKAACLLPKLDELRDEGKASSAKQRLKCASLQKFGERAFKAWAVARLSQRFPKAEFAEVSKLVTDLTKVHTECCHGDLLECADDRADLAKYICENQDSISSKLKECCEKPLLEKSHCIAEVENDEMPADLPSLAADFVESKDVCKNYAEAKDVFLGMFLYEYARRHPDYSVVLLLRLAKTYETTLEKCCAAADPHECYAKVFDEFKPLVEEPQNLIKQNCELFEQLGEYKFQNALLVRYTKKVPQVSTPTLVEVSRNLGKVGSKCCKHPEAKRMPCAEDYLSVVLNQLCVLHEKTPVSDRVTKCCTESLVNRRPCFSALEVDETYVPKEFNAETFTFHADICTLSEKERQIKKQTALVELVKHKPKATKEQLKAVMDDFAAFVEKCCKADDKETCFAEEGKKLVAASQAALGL

Compound | EC50 | EC50 at 20 hours (human, pH 7.4)
CC[C@H](C)[C@H](NC(=O)[C@H](Cc1cccc(C(F)(F)F)c1)NC(=O)[C@H](CCC(=O)O)NC(=O)[C@H](CCCNC(=N)N)NC(=O)[C@H](C)NC(=O)[C@H](C)NC(=O)[C@H](CCC(N)=O)NC(=O)[C@H](CCC(=O)O)NC(=O)[C@H](CCC(=O)O)NC(=O)[C@H](CC(C)C)NC(=O)[C@H](Cc1ccc(O)cc1)NC(=O)[C@H](CO)NC(=O)[C@H](CO)NC(=O)[C@@H](NC(=O)[C@H](CC(=O)O)NC(=O)[C@H](CO)NC(=O)[C@@H](NC(=O)[C@H](Cc1ccccc1)NC(=O)[C@@H](NC(=O)CNC(=O)[C@H](CCC(=O)O)NC(=O)[C@H](C)NC(=O)CCc1c[nH]cn1)[C@@H](C)O)[C@@H](C)O)C(C)C)C(=O)N[C@@H](C)C(=O)N[C@@H](Cc1c[nH]c2ccccc12)C(=O)N[C@@H](CC(C)C)C(=O)N[C@H](C(=O)N[C@@H](CCCNC(=N)N)C(=O)NCC(=O)N[C@@H](CCCNC(=N)N)C(=O)N[C@@H](CCCCNC(=O)COCCOCCNC(=O)COCCOCCNC(=O)C[C@@H](NC(=O)C1CCN(C(=O)CCCCCCCCCCCCCCCCC(=O)O)CC1)C(=O)O)C(N)=O)C(C)C [Example 3, N-epsilon37-[2-(2-[2-(2-[2-(2-((R)-3-[1-(17-Carboxyheptadecanoyl)piperidin-4-ylcarbonylamino]3-carboxypropionylamino)ethoxy)ethoxy]acetylamino)ethoxy]ethoxy)acetyl][DesaminoHis 7,Glu22,Arg26,Arg34,Phe(m-CF3)28]GLP-1-(7-37)amide] | 1500 to 2000 nM | –
CC[C@H](C)[C@H](NC(=O)[C@H](Cc1ccccc1)NC(=O)[C@H](CCC(=O)O)NC(=O)[C@H](CCCNC(=N)N)NC(=O)[C@H](C)NC(=O)[C@H](C)NC(=O)[C@H](CCC(N)=O)NC(=O)[C@H](CCC(=O)O)NC(=O)[C@H](CCC(=O)O)NC(=O)[C@H](CC(C)C)NC(=O)[C@H](Cc1ccc(O)cc1)NC(=O)[C@H](CO)NC(=O)[C@H](CO)NC(=O)[C@@H](NC(=O)[C@H](CC(=O)O)NC(=O)[C@H](CO)NC(=O)[C@@H](NC(=O)[C@H](Cc1ccccc1)NC(=O)[C@@H](NC(=O)CNC(=O)[C@H](CCC(=O)O)NC(=O)C(C)(C)NC(=O)[C@@H](N)Cc1c[nH]cn1)[C@@H](C)O)[C@@H](C)O)C(C)C)C(=O)N[C@@H](CCCCNC(=O)COCCOCCNC(=O)COCCOCCNC(=O)C[C@H](NC(=O)C1CCN(C(=O)CCCCCCCCCCCCCCCCCCC(=O)O)CC1)C(=O)O)C(=O)N[C@@H](Cc1c[nH]c2ccccc12)C(=O)N[C@@H](CC(C)C)C(=O)N[C@H](C(=O)N[C@@H](CCCCN)C(=O)NCC(=O)N[C@@H](CCCNC(=N)N)C(=O)NCC(=O)O)C(C)C [Example 4, N-epsilon30{2-[2-(2-{2-[2-((S)-3-carboxy-3-{[1-(19-carboxynonadecanoyl)piperidine-4-carbonyl]amino}propionylamino)ethoxy]ethoxy}acetylamino)ethoxy]ethoxy}acetyl [Aib8,Glu22,Arg26,Lys30]GLP-1-(7-37)] | 200 to 400 nM | –
CC[C@H](C)[C@H](NC(=O)[C@H](Cc1ccccc1)NC(=O)[C@H](CCC(=O)O)NC(=O)[C@H](CCCNC(=N)N)NC(=O)[C@H](C)NC(=O)[C@H](C)NC(=O)[C@H](CCC(N)=O)NC(=O)[C@H](CCC(=O)O)NC(=O)[C@H](CCC(=O)O)NC(=O)[C@H](CC(C)C)NC(=O)[C@H](Cc1ccc(O)cc1)NC(=O)[C@H](CO)NC(=O)[C@H](CO)NC(=O)[C@@H](NC(=O)[C@H](CC(=O)O)NC(=O)[C@H](CO)NC(=O)[C@@H](NC(=O)[C@H](Cc1ccccc1)NC(=O)[C@@H](NC(=O)CNC(=O)[C@H](CCC(=O)O)NC(=O)C(C)(C)NC(=O)[C@@H](N)Cc1c[nH]cn1)[C@@H](C)O)[C@@H](C)O)C(C)C)C(=O)N[C@@H](C)C(=O)N[C@@H](CCCCNC(=O)COCCOCCNC(=O)COCCOCCNC(=O)C[C@H](NC(=O)C1CCN(C(=O)CCCCCCCCCCCCCCCCCCC(=O)O)CC1)C(=O)O)C(=O)N[C@@H](CC(C)C)C(=O)N[C@H](C(=O)N[C@@H](CCCNC(=N)N)C(=O)NCC(=O)N[C@@H](CCCNC(=N)N)C(=O)NCC(=O)O)C(C)C [Example 6, N-epsilon31-(2-{2-[2-(2-{2-[2-((S)-3-Carboxy-3-{[1-(19-carboxy-nonadecanoyl)piperidine-4-carbonyl]amino}propionylamino)ethoxy]ethoxy}acetylamino)ethoxy]ethoxy}acetyl)[Aib8,Glu22,Arg26,Lys31,Arg34]GLP-1-(7-37)] (H-H[Aib]EGTFTSDVSSYLEEQAAREFIAK([AEEA-AEEA-βAsp-Inp-C20 diacid])LVRGRG-OH) | 200 to 400 nM | –
CC[C@H](C)[C@H](NC(=O)[C@H](Cc1ccccc1)NC(=O)[C@H](CCC(=O)O)NC(=O)[C@H](CCCNC(=N)N)NC(=O)[C@H](C)NC(=O)[C@H](C)NC(=O)[C@H](CCC(N)=O)NC(=O)[C@H](CCC(=O)O)NC(=O)[C@H](CCC(=O)O)NC(=O)[C@H](CC(C)C)NC(=O)[C@H](Cc1ccc(O)cc1)NC(=O)[C@H](CO)NC(=O)[C@H](CO)NC(=O)[C@@H](NC(=O)[C@H](CC(=O)O)NC(=O)[C@H](CO)NC(=O)[C@@H](NC(=O)[C@H](Cc1ccccc1)NC(=O)[C@@H](NC(=O)CNC(=O)[C@H](CCC(=O)O)NC(=O)C(C)(C)NC(=O)[C@@H](N)Cc1c[nH]cn1)[C@@H](C)O)[C@@H](C)O)C(C)C)C(=O)N[C@@H](CCC(=O)O)C(=O)N[C@@H](Cc1c[nH]c2ccccc12)C(=O)N[C@@H](CC(C)C)C(=O)N[C@H](C(=O)N[C@@H](CCCCN)C(=O)NCC(=O)N[C@@H](CCCNC(=N)N)C(=O)N1CCC[C@H]1C(=O)N[C@@H](CCCCNC(=O)COCCOCCNC(=O)CC[C@H](NC(=O)CC[C@H](NC(=O)CCCNC(=O)CCCS(=O)(=O)NC(=O)CCCCCCCCCCCCCCCc1nnn[nH]1)C(=O)O)C(=O)O)C(=O)O)C(C)C [Example 14, [Aib8,Glu22,Arg26,Glu30,Pro37]GLP-1-(7-37)Lys [2-(2-{2-[4-Carboxy-4-(4-carboxy-4-{4-[4-(16-1H-tetrazol-5-yl-hexadecanoylsulfamoyl)butyrylamino]butyrylamino}butyrylamino)butyrylamino]ethoxy}ethoxy)acetyl]] (H-H[Aib]EGTFTSDVSSYLEEQAAREFIEWLVKGRPK([AEEA-γGlu-γGlu-GABA-X1])-OH; N-terminus and C-terminus assumed) | – | 150 to 200 nM
CC[C@H](C)[C@H](NC(=O)[C@H](Cc1ccccc1)NC(=O)[C@H](CCC(=O)O)NC(=O)[C@H](CCCNC(=N)N)NC(=O)[C@H](C)NC(=O)[C@H](C)NC(=O)[C@H](CCC(N)=O)NC(=O)[C@H](CCC(=O)O)NC(=O)[C@H](CCC(=O)O)NC(=O)[C@H](CC(C)C)NC(=O)[C@H](Cc1ccc(O)cc1)NC(=O)[C@H](CO)NC(=O)[C@H](CO)NC(=O)[C@@H](NC(=O)[C@H](CC(=O)O)NC(=O)[C@H](CO)NC(=O)[C@@H](NC(=O)[C@H](Cc1ccccc1)NC(=O)[C@@H](NC(=O)CNC(=O)[C@H](CCC(=O)O)NC(=O)C(C)(C)NC(=O)[C@@H](N)Cc1c[nH]cn1)[C@@H](C)O)[C@@H](C)O)C(C)C)C(=O)N[C@@H](C)C(=O)N[C@@H](Cc1c[nH]c2ccccc12)C(=O)N[C@@H](CC(C)C)C(=O)N[C@H](C(=O)N[C@@H](CCCNC(=N)N)C(=O)NCC(=O)N[C@@H](CCCNC(=N)N)C(=O)NCCCC[C@H](NC(=O)COCCOCCNC(=O)COCCOCCNC(=O)CC[C@H](NC(=O)CCCCCCCCCCCCCCCCC(=O)O)C(=O)O)C(=O)O)C(C)C [Example 28, N-alpha37-[2-(2-{2-[2-(2-{2-[(S)-4-Carboxy-4-(17-carboxy-heptadecanoylamino)-butyrylamino]-ethoxy}-ethoxy)-acetylamino]-ethoxy}-ethoxy)-acetyl] [Aib8,Glu22,Arg26,Arg34,epsilon-Lys37]GLP-1-(7-37)peptide] (H-H[Aib]EGTFTSDVSSYLEEQAAREFIAWLVRGR-X2) | 200 to 400 nM | –
CC[C@H](C)[C@H](NC(=O)[C@H](Cc1ccccc1)NC(=O)[C@H](CCC(=O)O)NC(=O)[C@H](CCCNC(=N)N)NC(=O)[C@H](C)NC(=O)[C@H](C)NC(=O)[C@H](CCC(N)=O)NC(=O)[C@H](CCC(=O)O)NC(=O)[C@H](CCC(=O)O)NC(=O)[C@H](CC(C)C)NC(=O)[C@H](Cc1ccc(O)cc1)NC(=O)[C@H](CO)NC(=O)[C@H](CO)NC(=O)[C@@H](NC(=O)[C@H](CC(=O)O)NC(=O)[C@H](CO)NC(=O)[C@@H](NC(=O)[C@H](Cc1ccccc1)NC(=O)[C@@H](NC(=O)CNC(=O)[C@H](CCC(=O)O)NC(=O)[C@H](C)NC(=O)CCc1c[nH]cn1)[C@@H](C)O)[C@@H](C)O)C(C)C)C(=O)N[C@@H](CCC(=O)O)C(=O)N[C@@H](Cc1c[nH]c2ccccc12)C(=O)N[C@@H](CC(C)C)C(=O)N[C@H](C(=O)N[C@@H](CCCNC(=N)N)C(=O)NCC(=O)N[C@@H](CCCCNC(=O)COCCOCCNC(=O)COCCOCCNC(=O)CC[C@H](NC(=O)CCCCCCCCCCCCCCC(=O)O)C(=O)O)C(=O)NCC(=O)N[C@@H](CCC(=O)O)C(=O)N[C@@H](CCCCN)C(=O)O)C(C)C [Example 30, N-epsilon36-[2-(2-{2-[2-(2-{2-[(S)-4-carboxy-4-(15-carboxy-pentadecanoylamino)-butyrylamino]-ethoxy}-ethoxy)-acetylamino]-ethoxy}-ethoxy)-acetyl] [desaminoHis7, Glu22, Arg26, Glu30, Arg34, Lys36]GLP-1-(7-37)-Glu-Lys peptide] (Desaminohistidyl-AEGTFTSDVSSYLEEQAAREFIEWLVRGK([AEEA-AEEA-γGlu-C16 diacid])GEK-OH) | > 2000 nM | –
